Read-outs that look alike come from different tables or passages of the source.
How the values were obtained:
[1] = tested on: Hepatitis B viral infections; details: in words; prior therapy; cited from earlier work
[2] = tested on: human immunodeficiency virus (HIV); details: in words, literature, cited from earlier work
HIV-1 [3] = details: data from published literature; read-out: Anti-HIV ID50; cited from earlier work
HBV [4] = details: data from published literature; read-out: Anti-HBV ID50; cited from earlier work
mitochondrial DNA = details: cited from earlier work; for IC50: data from published literature, read-out: Anti-mitochondrial DNA ID50
CEM cells [5] = details: cited from earlier work; for CC50: data from published literature, 4320 min, read-out: Cytotoxicity ID50
in vitro = details: human, cem cells
CEM cells [6] = assay: Cellular toxicity in T-lymphoblastoic cell line (CEM), cell number 3 days post treatment; format: cell-based; details: in words
Description: (§1) To determine the cellular toxicity of the present compounds, the T-lymphoblastoic cell line (CEM) was used. Cells were subjected to varying concentrations of the drug(s) and cell numbers were determined 3 days post treatment by the method described by Chen, C-H and Cheng, Y-C J. Biol. Chem., 264, 11934 (1989).

[7] = as above; format: cell-based; details: human; CEM cells, 3 days; read-out: Cytotoxicity ID50
Description: as §1

HIV-1 [8] = assay: Anti-HIV effects in T-lymphoblastoid cell line MT-2 infected with HIV-1; format: cell-based; details: Human immunodeficiency virus 1, MT2, MT-2 cells, read-out: Anti-HIV ID50
Description: Anti-HIV effects were determined using the T-lymphoblastoid cell line, MT-2 infected with the HIV-1 virus. The inhibition was determined by the method of Larder, B. A., et al., Antimicrob. Agents Chemother., 34, 436 (1990).

HBV [9] = assay: Anti-HBV effects: viral DNA from secreted particles of the 2.2.15 human hepatoma cell line carrying HBV (Southern analysis); format: cell-based, Hepatitis B virus
Description: The biological activity of the present compounds was assessed as described by Doong, S-L, et al., Proc. Natl. Acad. Sci. U.S.A 88, 8495-8499 (1991). The human hepatoma cell line carrying the HBV (designated 2.2.15) kindly provided by Dr. G. Acs was used in the study. Price, et al., Proc. Natl. Acad. Sci. U.S.A. 86, 8541 (1989). Briefly, Six day-old cultures were treating with varying concentrations of the drug in the culture medium (Minimum essential medium with Earl's salts and 10% fetal bovine serum). The drug was left in the culture medium for a period of 3 days after which period the medium was aspirated and fresh medium containing the same concentration(s) of the dry was added. At the end of the subsequent 3 day period the culture medium was harvested. The culture medium was processed for obtaining the virions by the polyethylene glycol precipitation method (Doong, et al., supra). Viral DNA thus recovered from the secreted particles was subjected to Southern analysis. Inhibition of the viral replication was determined by the comparison of the viral DNA from drug-treated versus control cultures not treated with the drug.

Hepatitis B virus = details: in words; literature; cited from earlier work

## Nc1nc2c(ncn2COCCO)c(=O)[nH]1 [acyclovir]
[1]
  success in treatment of hepatitis: little, if any, success

## Cc1cn([C@H]2C[C@H](N=[N+]=[N-])[C@@H](CO)O2)c(=O)[nH]c1=O [AZT]
[1]
  success in treatment of hepatitis: little, if any, success

## Cc1cn([C@H]2C[C@H](F)[C@@H](CO)O2)c(=O)[nH]c1=O [3'-fluoro-3'-deoxythymidine]
[2]
  activity against HIV: significant activity

## Nc1ccn([C@H]2CC[C@@H](CO)O2)c(=O)n1 [ddC, 2',3'-dideoxycytidine]
HIV-1 [3]
  IC50: 1 µM
HBV [4]
  IC50: 2.8 µM
Mitochondrial DNA
  IC50: 0.022 µM
Mitochondrial DNA; in words
  effects on host mitochondrial DNA: significant effects on host mitochonrial DNA
CEM cells [5]
  CC50: 10 µM
CEM cells [5]; in words, compared with L-ddC
  cytotoxicity compared with L-ddC: much more cytotoxic than L-ddC
[2]
  activity against HIV: among the most potent inhibitors of HIV
[2]; listed as DDC
  activity against HIV: significant activity

## Nc1ccn([C@@H]2CC[C@H](CO)O2)c(=O)n1 [L-ddC, 1-(2,3-dideoxy-beta-L-ribofuranosyl)cytosine]
In vitro
  IC50: > 100 µM
CEM cells [6]
  cellular effects: minimal cellular effects
CEM cells [6]; compared with ddC
  cellular cytotoxicity as compared to ddC: considerably less
[7]
  CC50 at 72 h: 54 ± 20 µM
HIV-1 [8]
  IC50: 8 µM
HBV [9]; Hepatitis B virus, 2.2.15 cells, read-out: Anti-HBV ID50
  IC50: 0.01 µM
HBV [9]; in words
  inhibition of HBV DNA replication: efficiently inhibited
HBV [9]; in words, relative activity
  activity against HBV: several fold higher activity against HBV

## Nc1ccn([C@H]2C=C[C@@H](CO)O2)c(=O)n1 [2',3'-dideoxy-2',3'-didehydrocytidine]
[2]
  activity against HIV: significant activity

## Nc1ncnc2c1ncn2[C@@H]1O[C@H](CO)[C@@H](O)[C@@H]1O [adenine arabinoside]
[1]
  success in treatment of hepatitis: limited success

## interferon alpha
[1]
  success in treatment of hepatitis: limited success

## 2',3'-dideoxy-2',3'-didehydroguanosine [Carbovir]
[2]
  activity against HIV: significant activity

## Nc1ccn([C@H]2CS[C@@H](CO)O2)c(=O)n1 (stereo in doubt) [(-)S-ddC, (-)-2',3'-Dideoxy-3'-thiacytidine]
Hepatitis B virus
  activity against Hepatitis B virus in culture: potent activity
HIV-1 [3]
  IC50: 2 µM
HBV [4]
  IC50: 0.01 µM
Mitochondrial DNA
  IC50: > 50 µM
CEM cells [5]
  CC50: 50 µM

## Nc1ncnc2c1ncn2[C@H]1C[C@H](F)[C@@H](CO)O1 [3'-fluoro-2',3'-dideoxyadenosine]
[2]
  activity against HIV: significant activity

## Nc1nc(=O)n([C@@H]2CS[C@H](CO)O2)cc1F (relative stereo) [(±)5-FSddC]
Hepatitis B virus
  activity against Hepatitis B virus in culture: potent activity

## Nc1ncnc2c1ncn2[C@@H]1O[C@H](COP(=O)(O)O)[C@@H](O)[C@@H]1O [ara-AMP]
[1]
  success in treatment of hepatitis: limited success

## Cc1cn([C@H]2C=C[C@@H](CO)O2)c(=O)[nH]c1=O [Compound D4T, 3'-deoxy-2',3'-didehydrothymidine]
[2]
  activity against HIV: significant activity

## Nc1ccn([C@@H]2CS[C@H](CO)O2)c(=O)n1 (relative stereo) [(±) SddC, (+) and (-)-2',3'-Dideoxy-3'-thiacytidine]
Hepatitis B virus
  activity against Hepatitis B virus in culture: potent inhibitors of Hepatitis B virus

## OC[C@@H]1CC[C@H](n2cnc3c(O)ncnc32)O1 [DDI, 2',3'-dideoxyinosine]
[2]
  activity against HIV: significant activity

## [N-]=[N+]=N[C@H]1C[C@H](n2ccc(=O)[nH]c2=O)O[C@@H]1CO [3'-azido-2',3'-dideoxyuridine]
[2]
  activity against HIV: significant activity

## O=C(O)P(=O)(O)O [foscarnet]
[1]
  success in treatment of hepatitis: little, if any, success

Source: US5830881A, “L-2'3',dideoxy nucleoside analogs as anti-hepatitus B (HBV) agents” (priority 1996, dated 1998)
